From publication PMC11855478, “Bicyclic N,S-Acetals Containing Fused Cysteine-Amide System as New Heterocyclic Class Targeting Human Farnesyltransferase (FTase-h)” (International Journal of Molecular Sciences, 2025)

Key:
[1] = test system: NCI-H322M (Non-Small Cell Lung Cancer); test: NCI one dose, NCI-H322M; assay type: cell-based, human; details: 1.00E-5 Molar one dose
Protocol: (§1) 3.4. Cell Proliferation Assay
(§2) Selected compounds were tested on a panel of 60 human cancer cell lines at the National Cancer Institute (NCI), Germantown, MD, USA. The cytotoxicity studies were conducted using a 48 h exposure protocol using the sulfo-rhodamine B assay.

[2] = test system: TK-10 (Renal Cancer); test: NCI one dose, TK-10; assay type: cell-based, human; details: TK-10, 1.00E-5 Molar one dose
Protocol: as §1, §2

[3] = test system: SNB-75 (CNS Cancer); test: NCI one dose, SNB-75; assay type: cell-based, human; details: SNB-75, 1.00E-5 Molar one dose
Protocol: as §1, §2

[4] = test system: CAKI-1 (Renal Cancer); test: NCI one dose, CAKI-1; assay type: cell-based, human; details: CAKI-1, 1.00E-5 Molar one dose
Protocol: as §1, §2

[5] = test system: SF-539 (CNS Cancer); test: NCI one dose, SF-539; assay type: cell-based, human; details: SF-539, 1.00E-5 Molar one dose
Protocol: as §1, §2

[6] = test system: EKVX (Non-Small Cell Lung Cancer); test: NCI one dose, EKVX; assay type: cell-based, human; details: 1.00E-5 Molar one dose
Protocol: as §1, §2

[7] = test system: SF-295 (CNS Cancer); test: NCI one dose, SF-295; assay type: cell-based, human; details: SF-295, 1.00E-5 Molar one dose
Protocol: as §1, §2

[8] = test system: MCF7 (Breast Cancer); test: NCI one dose, MCF7; assay type: cell-based, human; details: MCF7, 1.00E-5 Molar one dose
Protocol: as §1, §2

[9] = test system: OVCAR-4 (Ovarian Cancer); test: NCI one dose, OVCAR-4; assay type: cell-based, human; details: OVCAR-4, 1.00E-5 Molar one dose
Protocol: as §1, §2

[10] = test system: panel of 60 human cancer cell lines; test: NCI 60 cell panel one dose screen (whole panel); assay type: cell-based; set-up: Delta (One Dose Mean Graph): unit not given here; details: 1.00E-5 Molar one dose; for Range (One Dose Mean Graph): in % (unit assumed); for Mean Growth Percent: mean over tested cell lines
Protocol: as §1
Selected compounds were tested on a panel of 60 human cancer cell lines at the National Cancer Institute (NCI), Germantown, MD, USA. The cytotoxicity studies were conducted using a 48 h exposure protocol using the sulfo-rhodamine B assay. […]
X. NCI One Dose Mean Graph of sulfides 4a(A -J) and 4b(A-J)
The entire series of sulfides regrouping twenty synthesized FTI-candidates (4aA-J, 4bA-J) were selected by the National Cancer Institute (NCI) for evaluation of their antiproliferative activity against 60 cancer cell lines (see the followings twenty pages for full evaluation reports). […]
inhibiting 36% of the NCI-H522 cells. Such difference between IC50 on human FTase in the nanomolar range and IC50 on cancer cell growth in the micromolar range is characteristic to potent FTIs and was reported previously on different series of compounds (see for example ref erence in the references part […]
Of interest, none of the tested compounds at a high single dose (10 µM) in the full NCI 60 cell panel has shown a cytotoxic profile. […]
inhibitory potential on FTase raise good hope for further investigation of these series as agents fighting

[11] = test system: SK-MEL-5 (Melanoma); test: NCI one dose, SK-MEL-5; assay type: cell-based, human; details: SK-MEL-5, 1.00E-5 Molar one dose
Protocol: as §1, §2

[12] = test system: MDA-MB-468 breast cancer cells; test: NCI one dose, MDA-MB-468; assay type: cell-based, human; details: MDA-MB-468, 1.00E-5 Molar one dose
Protocol: as §1, §2

[13] = test system: SK-OV-3 (Ovarian Cancer); test: NCI one dose, SK-OV-3; assay type: cell-based, human; details: SK-OV-3, 1.00E-5 Molar one dose
Protocol: as §1, §2

[14] = test system: MOLT-4 (Leukemia); test: NCI one dose, MOLT-4; assay type: cell-based, human; details: MOLT-4, 1.00E-5 Molar one dose
Protocol: as §1, §2

[15] = test system: UACC-62 (Melanoma); test: NCI one dose, UACC-62; assay type: cell-based, human; details: UACC-62, 1.00E-5 Molar one dose
Protocol: as §1, §2

[16] = test system: SF-268 (CNS Cancer); test: NCI one dose, SF-268; assay type: cell-based, human; details: SF-268, 1.00E-5 Molar one dose
Protocol: as §1, §2

[17] = test system: BT-549 (Breast Cancer); test: NCI one dose, BT-549; assay type: cell-based, human; details: BT-549, 1.00E-5 Molar one dose
Protocol: as §1, §2

[18] = test system: HS 578T (Breast Cancer); test: NCI one dose, HS 578T; assay type: cell-based, human; details: 1.00E-5 Molar one dose
Protocol: as §1, §2

[19] = test system: LOX IMVI (Melanoma); test: NCI one dose, LOX IMVI; assay type: cell-based, human; details: 1.00E-5 Molar one dose
Protocol: as §1, §2

[20] = test system: RXF 393 (Renal Cancer); test: NCI one dose, RXF 393; assay type: cell-based, human; details: RXF 393, 1.00E-5 Molar one dose
Protocol: as §1, §2

[21] = test system: OVCAR-8 (Ovarian Cancer); test: NCI one dose, OVCAR-8; assay type: cell-based, human; details: OVCAR-8, 1.00E-5 Molar one dose
Protocol: as §1, §2

[22] = test system: HOP-62 (Non-Small Cell Lung Cancer); test: NCI one dose, HOP-62; assay type: cell-based, human; details: HOP-62, 1.00E-5 Molar one dose
Protocol: as §1, §2

[23] = test system: SNB-19 (CNS Cancer); test: NCI one dose, SNB-19; assay type: cell-based, human; details: SNB-19, 1.00E-5 Molar one dose
Protocol: as §1, §2

[24] = test system: MDA-MB-435 (Melanoma); test: NCI one dose, MDA-MB-435; assay type: cell-based, human; details: MDA-MB-435, 1.00E-5 Molar one dose
Protocol: as §1, §2

[25] = test system: HCT-15 (Colon Cancer); test: NCI one dose, HCT-15; assay type: cell-based, human; details: HCT-15, 1.00E-5 Molar one dose
Protocol: as §1, §2

[26] = test system: U251 (CNS Cancer); test: NCI one dose, U251; assay type: cell-based, human; details: U251, 1.00E-5 Molar one dose
Protocol: as §1, §2

[27] = test system: UACC-257 melanoma cells; test: NCI one dose, UACC-257; assay type: cell-based, human; details: UACC-257, 1.00E-5 Molar one dose
Protocol: as §1, §2

[28] = test system: MDA-MB-231/ATCC (Breast Cancer); test: NCI one dose, MDA-MB-231/ATCC; assay type: cell-based, human; details: 1.00E-5 Molar one dose
Protocol: as §1, §2

| Structure (SMILES) | Growth Percent [1] [%] | Growth Percent [2] [%] | Growth Percent [3] [%] | Growth Percent [4] [%] | Growth Percent [5] [%] | Growth Percent [6] [%] | Growth Percent [7] [%] | Growth Percent [8] [%] | Growth Percent [9] [%] | Delta (One Dose Mean Graph) [10] | Range (One Dose Mean Graph) [10] | Mean Growth Percent [10] [%] | Growth Percent [11] [%] | Growth Percent [12] [%] | Growth Percent [13] [%] | Growth Percent [14] [%] | Growth Percent [15] [%] | Growth Percent [16] [%] | Growth Percent [17] [%] | Growth Percent [18] [%] | also measured |
| --- | --- | --- | --- | --- | --- | --- | --- | --- | --- | --- | --- | --- | --- | --- | --- | --- | --- | --- | --- | --- | --- |
| COc1ccc(CNC(=O)[C@@H]2CS[C@H]3c4ccccc4C(=O)N23)cc1 [4aF] | 88.19 | 105.25 | 114.38 | 97.50 | 107.51 | 106.31 | 95.57 | 85.78 | 110.64 | 26.11 | 46.82 | 101.29 | 110.95 | 122.00 | 99.01 | 97.28 | 91.16 | 101.17 | 103.55 | 104.20 | Growth Percent [19]: 100.31%; Growth Percent [20]: 117.51%; Growth Percent [21]: 99.52%; Growth Percent [22]: 94.33%; Growth Percent [23]: 90.14%; Growth Percent [24]: 114.08%; Growth Percent [25]: 100.29%; Growth Percent [26]: 98.53%; Growth Percent [27]: 97.39%; Growth Percent [28]: 107.73% |
| COc1cc(CNC(=O)[C@@H]2CS[C@H]3c4ccccc4C(=O)N23)cc(OC)c1OC [4aJ] | 107.00 | 103.10 | 86.61 | 95.05 | 89.92 | 101.46 | 107.19 | 104.04 | 104.76 | 15.66 | 30.62 | 98.66 | 107.99 | 91.25 | 93.11 | 90.32 | 92.01 | 104.63 | 92.77 | 101.31 | Growth Percent [19]: 99.61%; Growth Percent [20]: 110.79%; Growth Percent [21]: 103.46%; Growth Percent [22]: 94.96%; Growth Percent [23]: 92.64%; Growth Percent [24]: 106.49%; Growth Percent [25]: 107.89%; Growth Percent [26]: 104.21%; Growth Percent [27]: 98.86%; Growth Percent [28]: 84.71% |
